From patent US9359372B2, “Hexahydrodibenzo[a,g]quinolizine compound, preparation method thereof, pharmaceutical composition and use thereof” (SHANGHAI INSTITUTE OF MATERIA MEDICA, CHINESE ACADEMY OF …, priority 2011, dated 2016)

Tests used:
dopamine D1 receptor = dopamine D1 receptor (Macaca mulatta (Rhesus macaque), UniProt O77680); test: Affinity on dopamine D1 receptor, competition with [3H] SCH23390; assay type: binding; set-up: D1 receptor inhibition ratio (%): concentration or dose not given beside the values; settings: for affinity on dopamine D1 receptor (in words): summary of the tables
Method: (§1) (1). Determination of the Affinity of Hexahydrodibenzo[a,g]Quinolizine Compound of General Formula I and Derivatives Thereof on Dopamine D1, Dopamine D2, 5-HT1A, and 5-HT2A Receptor.
(§2) 1) The Experimental Method
(§3) Different concentrations (10^−5 M-10^−11 M) of the compound of the invention and corresponding isotope receptor ligand as well as receptor protein were loaded into the reaction tube and incubated in 30° C. water bath for 60 minutes. The reaction was terminated in a refrigerator. The reaction mixture was put in a Millipore filter (millipore) cell sample collector, filtered through suction filtration using GF/C glass fiber filter paper, and dried. The resulting sample was placed into 0.5 mL tube. 500 μL liquid scintillation fluid was added and intensity of radioactivity was determined by counting.
(§4) (1) Construction of receptor and materials for cell culture: Escherichia coli. DH5α strain; insect virus transfer vector pVL1393 plasmid; BaculoGold linear Chinese baculovirus DNA, purchased from ParMingen company; mkD1RcDNA; rD2R cDNA; various restriction endonucleases, TaqDNA polymerase, T4 ligase, etc., LB medium; insect cell culture TNM-FH.
(§5) (2) the Experimental Materials for Receptor Binding
(§6) Firstly, the above […] are dissolved in DMSO and then diluted with double distilled water to the appropriate concentration (10^−5 M-10^−11 M).
(§7) (+) Butaclamo purchased from RBI company, GF/C glass fiber filter paper purchased from Whatman Co., scintillation fluid (dopamine D1, D2 receptors)/liposoluble scintillation fluid (5-HT1A, 5-HT2A receptor), Beckman LS-6500 multi-function liquid scintillation counter.

dopamine D2 receptor [1] = target: T1, dopamine D2 receptor (Homo sapiens (Human), UniProt P14416); test: Inhibition property on dopamine D2 receptor, cAMP detection in CHO cells stably expressing D2 receptor; assay type: cell-based; settings: 10 μM Forskoline and 10 μM dopamine, read-out: D2 receptor Antagonist IC50
Method: 2. Determination of the Inhibition Property of Hexahydrodibenzo[a,g]Quinolizine Compound of General Formula I and Derivatives Thereof on Dopamine D2 Receptor.
(1) The Experimental Method
Each medicament was dissolved in serum-free F12 culture medium containing 100 μM of IBMX. CHO cells which can stably express D2 receptor were pre-incubated at 37° C. for 10 min, and then 10 μM Forskoline and 10 μM Dopanie were added at the same time to react for 10 min. 100 μL, of pre-cooled 1 M of HClO4 was added and the reaction was terminated at 4° C. for 1 hour. 20 μL of 2 M K2CO3 was added to neutralize the reaction. […] A certain amount of the supernatant was taken for cAMP detection.

D2 dopamine receptor = D2 dopamine receptor (Rattus norvegicus (Rat), UniProt P61169); test: Affinity on dopamine D2 receptor, competition with [3H] Spiperone; assay type: binding; set-up: D2 receptor inhibition ratio (%): concentration or dose not given beside the values; settings: for affinity on dopamine D2 receptor (in words): summary of the tables
Method: as §1, §2, §3, §4, §5, §6, §7

D1 dopamine receptors = D1 dopamine receptors (Homo sapiens (Human), UniProt P21728); test: Radioligand binding assay, D1 receptor, HEK293T membrane homogenates; settings: HEK293T membranes, [3H]SCH23390
Method: (§8) The affinity of compounds to D1 and D2 dopamine receptors were determined by competition binding assays. Membrane homogenates of HEK293T cells were stably transfected with D1, or D2 receptors. […] The reaction was started by addition of membranes ([…]) and stopped by rapid filtration through Whatman GF/B glassfiber filter and subsequently washed with cold buffer (50 mM Tris, 5 mM EDTA, pH 7.4) using a Brandel 24-well cell harvester. Scintillation cocktail was added and the radioactivity was determined in a MicroBeta liquid scintillation counter. The IC50 and Ki values were calculated by nonlinear regression (PRISM, Graphpad, San Diego, Calif.) using a sigmoidal function.

dopamine D2 receptor [2] = target: T1, dopamine D2 receptor; test: Radioligand binding assay, D2 receptor, HEK293T membrane homogenates; set-up: D2 Inhibition (%): concentration or dose not given beside the values; settings: HEK293T membranes, [3H]Spiperone
Method: as §8

5-HT1A receptor = 5-HT1A receptor (Homo sapiens (Human), UniProt P08908); test: Affinity on 5-HT1A receptor, competition with [3H] 8-OH-DPAT; assay type: binding
Method: as §1, §2, §3, §5
8-OH-DPAT; 5-HT1A receptor protein expressed in HEK-293 cells;
as §6, §7

D1 receptor = D1 receptor (Homo sapiens (Human), UniProt P21728); test: [35S]GTPγS binding assay for D1 receptor; assay type: biochemical
Sequence of D1 receptor (P21728 whole entry): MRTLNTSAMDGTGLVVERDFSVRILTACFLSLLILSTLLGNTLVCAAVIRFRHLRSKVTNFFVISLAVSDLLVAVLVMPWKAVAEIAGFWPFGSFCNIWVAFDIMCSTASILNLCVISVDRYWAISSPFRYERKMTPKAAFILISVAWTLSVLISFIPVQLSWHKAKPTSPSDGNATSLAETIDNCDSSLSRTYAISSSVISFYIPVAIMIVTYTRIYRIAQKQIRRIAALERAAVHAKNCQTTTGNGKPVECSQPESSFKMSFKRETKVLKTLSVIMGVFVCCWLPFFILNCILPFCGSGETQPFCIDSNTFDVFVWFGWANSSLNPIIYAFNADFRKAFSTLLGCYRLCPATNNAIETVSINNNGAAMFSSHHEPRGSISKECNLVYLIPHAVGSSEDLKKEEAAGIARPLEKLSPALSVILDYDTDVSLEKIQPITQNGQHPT

T1 sequence (P14416 whole entry, species assumed): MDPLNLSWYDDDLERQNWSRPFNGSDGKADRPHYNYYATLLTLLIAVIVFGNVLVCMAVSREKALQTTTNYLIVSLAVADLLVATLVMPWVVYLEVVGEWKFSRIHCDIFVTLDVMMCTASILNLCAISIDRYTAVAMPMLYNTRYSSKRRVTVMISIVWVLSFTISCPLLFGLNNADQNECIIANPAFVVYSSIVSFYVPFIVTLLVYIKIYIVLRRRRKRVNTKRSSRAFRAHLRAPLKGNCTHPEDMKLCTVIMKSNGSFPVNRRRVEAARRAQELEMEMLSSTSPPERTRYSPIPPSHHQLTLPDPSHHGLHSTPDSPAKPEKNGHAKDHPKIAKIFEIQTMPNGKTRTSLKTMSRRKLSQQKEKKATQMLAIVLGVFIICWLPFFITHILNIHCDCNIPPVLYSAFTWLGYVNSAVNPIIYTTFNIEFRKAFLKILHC
Sequence of dopamine D1 receptor (O77680 whole entry): as the sequence (P21728 whole entry) above, with N311I counted along it
Sequence of D2 dopamine receptor (P61169 whole entry): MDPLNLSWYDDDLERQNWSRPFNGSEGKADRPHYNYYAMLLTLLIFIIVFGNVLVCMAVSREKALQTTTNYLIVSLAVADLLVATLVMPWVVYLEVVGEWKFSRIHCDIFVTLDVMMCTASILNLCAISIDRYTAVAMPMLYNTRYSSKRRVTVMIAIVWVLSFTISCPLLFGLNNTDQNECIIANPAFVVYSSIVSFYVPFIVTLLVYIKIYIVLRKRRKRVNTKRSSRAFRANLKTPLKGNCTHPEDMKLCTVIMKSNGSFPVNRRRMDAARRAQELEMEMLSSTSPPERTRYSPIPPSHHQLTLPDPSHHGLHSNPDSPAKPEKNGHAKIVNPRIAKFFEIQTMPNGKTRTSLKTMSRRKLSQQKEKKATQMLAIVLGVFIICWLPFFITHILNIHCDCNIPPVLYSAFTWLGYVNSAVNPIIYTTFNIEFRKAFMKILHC
Sequence of D1 dopamine receptors (P21728 whole entry): as the sequence (P21728 whole entry) above
Sequence of 5-HT1A receptor (P08908 whole entry): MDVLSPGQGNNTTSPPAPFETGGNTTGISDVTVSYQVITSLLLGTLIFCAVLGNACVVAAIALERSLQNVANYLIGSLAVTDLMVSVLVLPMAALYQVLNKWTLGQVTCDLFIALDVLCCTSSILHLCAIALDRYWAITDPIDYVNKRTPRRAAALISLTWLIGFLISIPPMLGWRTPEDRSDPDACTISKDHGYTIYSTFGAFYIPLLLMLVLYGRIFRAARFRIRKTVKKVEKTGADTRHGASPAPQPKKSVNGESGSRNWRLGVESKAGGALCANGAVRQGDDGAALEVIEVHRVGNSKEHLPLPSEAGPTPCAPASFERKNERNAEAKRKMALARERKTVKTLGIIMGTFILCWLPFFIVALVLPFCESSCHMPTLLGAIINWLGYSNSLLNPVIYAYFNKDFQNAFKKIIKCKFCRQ

| D1 receptor inhibition ratio (%) (dopamine D1 receptor) | IC50 (dopamine D1 receptor) | Ki (dopamine D1 receptor) | D2 receptor inhibition ratio (%) (D2 dopamine receptor) | Ki (D1 dopamine receptors) | Compound | also measured |
| --- | --- | --- | --- | --- | --- | --- |
| 98.0% | 370 nM | 247 nM | 75.75% | – | COc1cc2c(cc1OC)C1Cc3c(OC)ccc(OC)c3CN1CC2 (racemic) [DC037003, (±)-2,3,9,12-tetramethoxy-5,8,13,13a-tetrahydro-6H-dibenzo[a,g]quinolizine] | IC50 (dopamine D2 receptor [1]): 3300 nM |
| 82.5% | 2920 nM | 1440 nM | 77.4% | – | COc1cc2c(cc1OC)C1Cc3cc(C)cc(C)c3CN1CC2 (racemic) [DC037018, (±)-2,3-bimethoxy-9,11-dimethyl-5,8,13,13a-tetrahydro-6H-dibenzo[a,g]quinolizine] | IC50 (dopamine D2 receptor [1]): 15600 nM |
| 91.3% | 1500 nM | 741 nM | 76.2% | – | COc1cc2c(cc1OC)CN1CCc3cc(O)c(O)cc3C1C2 (racemic) [DC037024, (±)-2,3-bihydroxy-10,11-bimethoxy-5,8,13,13a-tetrahydro-6H-dibenzo[a,g]quinolizine] | IC50 (dopamine D2 receptor [1]): 591 nM |
| 66.8% | – | – | 51.5% | – | COc1ccc2c(c1)CCN1Cc3cc(OC)c(OC)cc3C[C@@H]21 [DC037010, S-(+3,10,11-trimethoxy-5,8,13,13a-tetrahydro-6H-dibenzo[a,g]quinolizine] | – |
| 59.3% | – | – | 41.7% | – | COc1cc2c(cc1OC)[C@@H]1Cc3cc4c(cc3CN1CC2)OCO4 [DC037011, S-(−)-2,3-bimethoxy-10,11-methylenedioxy-5,8,13,13a-tetrahydro-6H-dibenzo[a,g]quinolizine] | – |
| 95.8% | 300 nM | 148 nM | 89.3% | – | c1c2c(cc3c1OCO3)CN1CCc3cc4c(cc3[C@@H]1C2)OCO4 [DC037012, S-(−)-2,3,10,11-bimethylenedioxy-5,8,13,13a-tetrahydro-6H-dibenzo[a,g]quinolizine] | IC50 (D2 dopamine receptor): 1240 nM; Ki (D2 dopamine receptor): 240 nM |
| 59.2% | – | – | 59.3% | – | COc1cc2c(cc1OC)CN1CCc3cc4c(cc3[C@@H]1C2)OCO4 [DC037015, S-(−)-2,3-methylenedioxy-10,11-bimethoxy-5,8,13,13a-tetrahydro-6H-dibenzo[a,g]quinolizine] | – |
| 95.5% | 763 nM | 377 nM | 66.2% | – | COc1cc2c(c(OC)c1OC)CN1CCc3cc4c(cc3[C@@H]1C2)OCO4 [DC037016, S-(−)-2,3-methylenedioxy-9,10,11-bimethoxy-5,8,13,13a-tetra-hydro-6H-dibenzo[a,g]quinolizine] | – |
| 10.3% | – | – | 65.3% | – | COc1cc2c(cc1OC)[C@@H]1Cc3cc(OC)c(OC)c(OC)c3[C@H](C)N1CC2 [DC037019, (8S,14S)-2,3,9,10,11-pentamethoxyl-8-methyl-5,8,13,13a-tetra-hydro-6H-dibenzo[a,g]quinolizine] | – |
| 47.3% | – | – | 57.1% | – | COc1cc2c(cc1OC)[C@@H]1Cc3cc4c(cc3[C@H](C)N1CC2)OCO4 [DC037020, (8S,14S)-2,3-bimethoxy-8-methyl-10,11-methylenedioxy-5,8,13,13a-tetrahydro-6H-dibenzo[a,g]quinolizine] | – |
| 98.99% | 56.4 nM | 28.9 nM | 90.10% | 28.9 ± 2.73 nM | COc1cc2c(cc1O)[C@@H]1Cc3cc(C)cc(C)c3CN1CC2 [DC037031, S-(−)-2-hydroxy-3-methoxy-9,11-dimethyl-5,8,13,13a-tetra-hydro-6H-dibenzo[a,g]quinolizine] | affinity on dopamine D1 receptor (in words) (dopamine D1 receptor): strong affinity; Ki (dopamine D2 receptor [2]): 161 ± 21.1 nM; IC50 (D2 dopamine receptor): 456 nM; Ki (D2 dopamine receptor): 161 nM; affinity on dopamine D2 receptor (in words) (D2 dopamine receptor): strong affinity |
| 91.94% | – | – | 13.75% | – | Cc1ccc(C)c2c1CC1c3cc4c(cc3CCN1C2)OCO4 (stereo not drawn) [DC037033, S-(−)-2,3-methylenedioxy-9,12-dimethyl-5,8,13,13a-tetrahydro-6H-dibenzo[a,g]quinolizine] | – |
| – | 484 nM | 248 nM | – | – | COc1ccc(OC)c2c1C[C@H]1c3cc4c(cc3CCN1C2)CCO4 [DC037034, S-(+9,12-bimethoxy-2,3,5,8,13,13a-hexahydro-8H-benzo[3,2,a,g]furanquinolizine] | Ki (5-HT1A receptor): 497 nM |
| 99.68% | 13.3 nM | 6.72 nM | 84.30% | 6.72 ± 0.34 nM | COc1ccc(OC)c2c1C[C@H]1c3cc(O)c(O)cc3CCN1C2 [DC037035, S-(−)-2,3-bihydroxy-9,12-bimethoxy-5,8,13,13a-tetrahydro-6H-dibenzo[a,g]quinolizine] | affinity on dopamine D1 receptor (in words) (dopamine D1 receptor): strong affinity; D2 Inhibition (%) (dopamine D2 receptor [2]): 84.30%; affinity on dopamine D2 receptor (in words) (D2 dopamine receptor): strong affinity |
| – | – | – | – | 74.5 ± 3.85 nM | COc1cc2c(cc1OC)[C@@H]1Cc3c(CO)c(OC)cc(OC)c3CN1CC2 [DC037076, (S)-2,3,9,11-tetramethoxy-12-hydroxymethyl-5,8,13,13a-tetra-hydro-6H-dibenzo[a,g]quinolizine] | D2 Inhibition (%) (dopamine D2 receptor [2]): 1.02% |
| 97.79% | 142 nM | 74.5 nM | 1.02% | 64.1 ± 4.43 nM | COc1cc2c(c(OC)c1)CN1CCc3cc4c(cc3[C@@H]1C2)OCO4 [DC037078, (S)-2,3-methylenedioxy-9,11-bimethoxy-5,8,13,13a-tetrahydro-6H-dibenzo[a,g]quinolizine] | D2 Inhibition (%) (dopamine D2 receptor [2]): 39.50% |
| 99.99% | 9.85 nM | 5.18 nM | 76.21% | 2.53 ± 0.16 nM | COc1cc2c(c(OC)c1)CN1CCc3cc(OC)c(O)cc3[C@@H]1C2 [DC037079, (S)-2-hydroxy-3,9,11-trimethoxy-5,8,13,13a-tetrahydro-6H-dibenzo-[a,g]quinolizine] | affinity on dopamine D1 receptor (in words) (dopamine D1 receptor): strong affinity; D2 Inhibition (%) (dopamine D2 receptor [2]): 83.31%; affinity on dopamine D2 receptor (in words) (D2 dopamine receptor): strong affinity; D1 antagonist Imax % (D1 receptor; [35S]GTPγS binding): 94.2 ± 1.5%; IC50 (D1 receptor; [35S]GTPγS binding, read-out: D1 antagonist IC50): 1400 ± 200 nM; D1 receptor antagonistic activity (in words) (D1 receptor; summary of Table 10): D1 receptor antagonistic activity; D1 receptor selectivity (in words) (D1 receptor; summary of Table 10): good D1 receptor selectivity |
| 22.60% | – | – | 73.07% | 17.3 ± 0.54 nM | COc1c(O)ccc2c1CN1CCc3cc4c(cc3[C@@H]1C2)OCC4 [DC037081, S-(−)-9-methoxyl-10-hydroxy-2,3,5,8,13,13a-hexahydro-8H-benzo[3,2,a,g]furanquinolizine] | Ki (dopamine D2 receptor [2]): 147 ± 10.2 nM |
| 99.32% | 14.7 nM | 7.51 nM | 63.94% | – | COc1c(O)ccc2c1CN1CCc3cc4c(cc3[C@@H]1C2)OCCO4 [DC037082, S-(−)-2,3-bimethylenedioxy-9-methoxyl-10-hydroxy-5,8,13,13a-tetrahydro-6H-dibenzo[a,g]quinolizine] | affinity on dopamine D1 receptor (in words) (dopamine D1 receptor): strong affinity; affinity on dopamine D2 receptor (in words) (D2 dopamine receptor): strong affinity |
| – | – | – | – | – | Oc1cc2c(cc1O)C(c1ccccc1)CNCC2 (centres unmarked) [SKF38393, reference compound] | Emax (D1 receptor; [35S]GTPγS binding, read-out: D1 agonist Emax %): 100% |
